In article PMC6017605, “In Silico Discovery of a Substituted 6-Methoxy-quinaldine with Leishmanicidal Activity in Leishmania infantum” (Molecules, 2018):

Biological target: T1, NDH-2 from S. aureus (SaNDH2, type 2 NADH:quinone oxidoreductase) (Staphylococcus aureus, UniProt Q2FZV7)
T1 construct: gene SAOUHSC_00878; recombinant NDH-2
Assay: steady-state NADH oxidation assay at […] nm with DMN as electron acceptor, […] enzyme
Assay type: biochemical

T1 sequence (Q2FZV7 whole entry): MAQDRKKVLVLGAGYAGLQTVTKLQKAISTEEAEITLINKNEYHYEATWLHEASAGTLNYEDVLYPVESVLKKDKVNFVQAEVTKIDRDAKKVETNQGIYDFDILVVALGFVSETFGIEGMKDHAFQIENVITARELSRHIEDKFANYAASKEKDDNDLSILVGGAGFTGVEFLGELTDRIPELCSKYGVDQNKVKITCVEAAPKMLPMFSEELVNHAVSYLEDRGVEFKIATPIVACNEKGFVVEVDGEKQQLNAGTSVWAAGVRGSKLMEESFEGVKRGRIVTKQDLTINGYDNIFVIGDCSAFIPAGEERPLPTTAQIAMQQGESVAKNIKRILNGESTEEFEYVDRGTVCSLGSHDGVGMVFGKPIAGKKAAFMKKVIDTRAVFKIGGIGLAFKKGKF

Structure (SMILES): COc1ccc2nc(C)ccc2c1 [compound 15]
- Ki: 8.9 ± 1 µM
